ChEMBL document CHEMBL1125092, “Nonneurotoxic tetralin and indan analogues of 3,4-(methylenedioxy)amphetamine (MDA)” (J Med Chem, 1990)

Tests used:
Rattus norvegicus [1] = experiment: Monoamine levels in rat brain were evaluated after subcutaneous administration of 40 mg/kg for DOPAC; format: functional
Rattus norvegicus [2] = species on record: Rattus norvegicus; experiment: Compounds were evaluated for binding of [3H]paroxetine to rat hippocampal homogenate and number of binding sites (Bmax) for serotonin; format: tissue-based; conditions: Hippocampus
Rattus norvegicus [3] = experiment: Monoamine levels in rat brain were evaluated after subcutaneous administration of 40 mg/kg for NE; format: functional
Rattus norvegicus [4] = species on record: Rattus norvegicus; experiment: Compounds were evaluated for binding of [3H]paroxetine to rat brain cortical homogenate and number of binding sites (Bmax) for serotonin; format: tissue-based
Rattus norvegicus [5] = experiment: Percentage of animals disrupted was determined in groups of MDMA trained rats at a dose of 1.90 (umol/kg),(no of animals = 8); format: functional
Rattus norvegicus [6] = experiment: Percentage of animals disrupted was determined in groups of MDMA trained rats at a dose of 3.81 (umol/kg),(no of animals = 8); format: functional
Rattus norvegicus [7] = experiment: Tested for stimulus generation in rats trained to discriminate MDMA from saline at a dose 7.62 (umol/kg),(number of animals = 8); format: functional
Rattus norvegicus [8] = experiment: Monoamine levels in rat brain were evaluated after subcutaneous administration of 40 mg/kg for 5-HT; format: functional
Rattus norvegicus [9] = experiment: Monoamine levels in rat brain were evaluated after subcutaneous administration of 40 mg/kg for DA; format: functional
Rattus norvegicus [10] = experiment: Tested for stimulus generation in rats trained to discriminate MDMA from saline at a dose 3.81 (umol/kg),(number of animals = 8); format: functional
Rattus norvegicus [11] = experiment: Monoamine levels in rat hippocampus were evaluated after subcutaneous administration of 40 mg/kg for 5-HT; format: functional
Rattus norvegicus [12] = experiment: Percentage of animals disrupted was determined in groups of MDMA trained rats at a dose of 7.62 (umol/kg),(no of animals = 8); format: functional
Rattus norvegicus [13] = experiment: Monoamine levels in rat brain were evaluated after subcutaneous administration of 40 mg/kg for 5-HIAA; format: functional
[14] = Binding affinity was determined towards serotonin uptake site in presence of [3H]paroxetine radioligand in rat hippocampal homogenate; format: tissue-based, Hippocampus
Rattus norvegicus [15] = experiment: Tested for stimulus generation in rats trained to discriminate MDMA from saline at a dose 1.90 (umol/kg) (number of animals = 8); format: functional
Rattus norvegicus [16] = experiment: Percentage of animals disrupted was determined in groups of MDMA trained rats at a dose of 0.95 (umol/kg),(no of animals = 8); format: functional
Rattus norvegicus [17] = experiment: Monoamine levels in at hippocampus were evaluated after subcutaneous administration of 40 mg/kg for NE; format: functional
Rattus norvegicus [18] = experiment: Monoamine levels in rat brain were evaluated after subcutaneous administration of 40 mg/kg for HVA; format: functional
Rattus norvegicus [19] = experiment: Monoamine levels in rat hippocampus were evaluated after subcutaneous administration of 40 mg/kg for 5-HIAA; format: functional
[20] = Binding affinity was determined towards serotonin uptake site in presence of [3H]paroxetine radioligand in rat brain cortical homogenate; format: tissue-based

CNC(C)Cc1ccc2c(c1)OCO2 (stereo not given) [MIDOMAFETAMINE]
Monoamine level (Rattus norvegicus [1]): 212 pg/mg
Bmax (Rattus norvegicus [2]): < 348 fM/g
Monoamine level (Rattus norvegicus [3]): 375 pg/mg
Bmax (Rattus norvegicus [4]): < 643 fM/g
D (Rattus norvegicus [5]): 0%
D (Rattus norvegicus [6]): 0%
SDL (Rattus norvegicus [7]): 100%
Monoamine level (Rattus norvegicus [8]): <161 pg/mg
Monoamine level (Rattus norvegicus [9]): 151 pg/mg
SDL (Rattus norvegicus [10]): 75%
Monoamine level (Rattus norvegicus [11]): <105 pg/mg
D (Rattus norvegicus [12]): 0%
Monoamine level (Rattus norvegicus [13]): <230 pg/mg
Kd [14]: 0.195 nM
SDL (Rattus norvegicus [15]): 25%
D (Rattus norvegicus [16]): 0%
Monoamine level (Rattus norvegicus [17]): 429 pg/mg
Monoamine level (Rattus norvegicus [18]): 318 pg/mg
Monoamine level (Rattus norvegicus [19]): <256 pg/mg
Kd [20]: 0.123 nM
